Measured values from patent US10793563B2, “GCN2 inhibitors and uses thereof” (Merck Patent GmbH, priority 2018, dated 2020).

Experiments:
[1] = target: intracellular GCN2 (phosphorylation of the GCN2 substrate eIF2α) (Homo sapiens (Human), UniProt Q9P2K8); experiment: GCN2 Cellular Inhibition Assay (AlphaScreen SureFire P-eIF2α Ser51, borrelidin-treated U2OS cells); type: cell-based; details: 10 μM borrelidin, 1 h, phosphorylated eIF2α Ser51, read-out: GCN2 Biomarker (IC50)
Method in brief: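 Phospho-eIF2α (Ser51) measured by AlphaScreen SureFire in lysates of U2OS cells stimulated 1 h at 37 °C with 10 μM borrelidin alongside compound, 4-fold dilutions from 40 μM. Inhibition expressed as percent relative to borrelidin-alone controls.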

[2] = target: GCN2 kinase (Homo sapiens (Human), UniProt Q9P2K8); experiment: GCN2 Enzyme Inhibition Assay (Transcreener ADP2 fluorescence polarization); type: biochemical; details: 280 μM ATP, 200 μM (RS)7 peptide, 4 nM GCN2, 25° C.; for Ki: Ki(app)
GCN2 kinase, sequence (Q9P2K8 whole entry): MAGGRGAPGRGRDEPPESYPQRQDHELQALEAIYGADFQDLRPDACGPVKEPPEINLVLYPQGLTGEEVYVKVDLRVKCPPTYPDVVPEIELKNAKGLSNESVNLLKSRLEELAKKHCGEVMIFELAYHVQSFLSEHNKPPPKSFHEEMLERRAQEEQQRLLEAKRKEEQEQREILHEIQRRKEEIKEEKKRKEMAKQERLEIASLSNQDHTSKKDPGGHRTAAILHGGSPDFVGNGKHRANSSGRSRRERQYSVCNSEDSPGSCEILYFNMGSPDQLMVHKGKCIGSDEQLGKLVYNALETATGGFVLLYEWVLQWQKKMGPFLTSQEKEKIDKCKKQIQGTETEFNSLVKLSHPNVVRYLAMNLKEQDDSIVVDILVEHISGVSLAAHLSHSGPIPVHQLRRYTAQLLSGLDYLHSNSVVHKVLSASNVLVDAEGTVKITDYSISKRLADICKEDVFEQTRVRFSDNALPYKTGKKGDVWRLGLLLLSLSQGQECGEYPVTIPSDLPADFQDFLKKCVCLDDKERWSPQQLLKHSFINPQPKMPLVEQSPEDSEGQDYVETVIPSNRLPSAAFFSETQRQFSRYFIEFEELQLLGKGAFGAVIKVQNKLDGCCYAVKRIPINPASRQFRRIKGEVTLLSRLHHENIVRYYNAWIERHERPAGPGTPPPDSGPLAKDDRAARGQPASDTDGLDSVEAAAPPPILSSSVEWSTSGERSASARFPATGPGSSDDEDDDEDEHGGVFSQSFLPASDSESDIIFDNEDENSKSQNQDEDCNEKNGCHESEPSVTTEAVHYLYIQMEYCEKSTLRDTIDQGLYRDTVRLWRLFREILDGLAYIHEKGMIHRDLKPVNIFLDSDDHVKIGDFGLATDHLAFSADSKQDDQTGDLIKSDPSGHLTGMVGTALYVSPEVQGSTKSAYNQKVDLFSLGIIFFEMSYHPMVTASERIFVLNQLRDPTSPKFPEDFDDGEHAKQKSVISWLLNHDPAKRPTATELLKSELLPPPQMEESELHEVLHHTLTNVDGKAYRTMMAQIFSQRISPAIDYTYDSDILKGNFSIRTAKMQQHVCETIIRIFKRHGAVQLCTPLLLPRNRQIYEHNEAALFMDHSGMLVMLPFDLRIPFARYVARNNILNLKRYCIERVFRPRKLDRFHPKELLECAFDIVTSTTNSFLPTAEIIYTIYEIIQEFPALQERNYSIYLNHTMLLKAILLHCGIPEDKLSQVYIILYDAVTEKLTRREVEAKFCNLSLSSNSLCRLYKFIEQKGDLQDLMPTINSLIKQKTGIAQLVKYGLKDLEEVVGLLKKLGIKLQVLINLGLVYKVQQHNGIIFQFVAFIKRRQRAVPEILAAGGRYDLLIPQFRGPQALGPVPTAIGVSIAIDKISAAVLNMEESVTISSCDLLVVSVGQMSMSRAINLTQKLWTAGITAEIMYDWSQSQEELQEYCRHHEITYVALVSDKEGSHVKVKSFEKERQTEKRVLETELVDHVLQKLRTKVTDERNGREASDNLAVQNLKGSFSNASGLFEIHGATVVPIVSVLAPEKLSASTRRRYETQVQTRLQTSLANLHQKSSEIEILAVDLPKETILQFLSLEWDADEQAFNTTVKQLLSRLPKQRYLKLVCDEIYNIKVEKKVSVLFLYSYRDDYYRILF
Method in brief: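 At 25 °C, GCN2 kinase (typical final concentration 4 nM) and (RS)7 peptide in Tris-HCl pH 7.5 buffer with MgCl2, NaCl and DTT were preincubated with compound for 10 min, then ATP was added for a 1 h reaction. ADP was read by FP with antibody/Alexa633 tracer. Non-linear tight-binding analysis gave IC50 and apparent Ki.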

intracellular GCN2 (phosphorylation of the GCN2 substrate eIF2α), sequence (Q9P2K8 whole entry): as above

| IC50 [1] [µM] | Ki [2] [µM] | IC50 [2] [µM] | SMILES |
| --- | --- | --- | --- |
| 0.5 to 5 | 0.01 to 0.1 |  | CC1CC(N=S(C)(C)=O)CN(c2ccnc(-c3cnc4ccc(C(F)(F)F)cn34)n2)C1 (centres unmarked) [I-32, dimethyl((5-methyl-1-(2-(6-(trifluoromethyl)imidazo[1,2-a]pyridin-3-yl)pyrimidin-4-yl)piperidin-3-yl)imino)-λ^6-sulfanone] |
| 0.5 to 5 |  | 0.1 to 1 | C[C@@H]1C[C@H](N=S(C)(C)=O)CN(c2ccnc(-c3cnc4ccc(Oc5ccccc5)cn34)n2)C1 [I-325, dimethyl({[(3 S,5R)-5-methyl-1-(2-{6-phenoxyimidazo[1,2-a]pyridin-3-yl}pyrimidin-4-yl)piperidin-3-yl]imino})-λ6-sulfanone] |
| < 0.5 |  | < 0.01 | Cc1cc(-c2cnc3ccc(N4CC(F)(F)C4)cn23)nc(N2C[C@H](C)C[C@H](c3cn[nH]c3)C2)n1 [I-288, 6-(3,3-difluoroazetidin-1-yl)-3-(6-methyl-2-((3R,5R)-3-methyl-5-(1H-pyrazol-4-yl)piperidin-1-yl)pyrimidin-4-yl)imidazo[1,2-a]pyridine] |
| < 0.5 |  | < 0.01 | FC(F)(F)c1ccc2ncc(-c3nccc(N4CCN(CC5CC5(F)F)C(c5cn[nH]c5)C4)n3)n2c1 (centres unmarked) [I-470, 3-(4-(4-((2,2-difluorocyclopropyl)methyl)-3-(1H-pyrazol-4-yl)piperazin-1-yl)pyrimidin-2-yl)-6-(trifluoromethyl)imidazo[1,2-a]pyridine] |
| < 0.5 |  | 0.01 to 0.1 | CC1C(c2cn[nH]c2)N(C2COC2)CCN1c1ccnc(-c2cnc3ccc(C(F)(F)F)cn23)n1 (centres unmarked) [I-322, 4-[2-methyl-4-(oxetan-3-yl)-3-(1H-pyrazol-4-yl)piperazin-1-yl]-2-[6-(trifluoromethyl)imidazo[1,2-a]pyridin-3-yl]pyrimidine] |
| 0.5 to 5 |  | 0.01 to 0.1 | FC(F)(F)c1ccc2ncc(-c3nccc(N4CCN[C@H](c5cn[nH]c5)C4)n3)n2c1 [I-532, (R)-3-(4-(3-(1H-pyrazol-4-yl)piperazin-1-yl)pyrimidin-2-yl)-6-(trifluoromethyl)imidazo[1,2-a]pyridine] |
| 0.5 to 5 |  | < 0.01 | FC(F)(F)c1ccc2ncc(-c3nccc(N4CCN(Cc5cnc[nH]5)C(c5cn[nH]c5)C4)n3)n2c1 (centres unmarked) [I-385, 3-(4-(4-((1H-imidazol-5-yl)methyl)-3-(1H-pyrazol-4-yl)piperazin-1-yl)pyrimidin-2-yl)-6-(trifluoromethyl)imidazo[1,2-a]pyridine] |
| < 0.5 |  | 0.01 to 0.1 | C[C@@H]1C[C@@H](c2cn[nH]c2)CN(c2nccc(-c3cnc4ccc(C5CC5)cn34)n2)C1 [I-236, 6-cyclopropyl-3-(2-((3R,5S)-3-methyl-5-(1H-pyrazol-4-yl)piperidin-1-yl)pyrimidin-4-yl)imidazo[1,2-a]pyridine] |
| < 0.5 |  | 0.01 to 0.1 | NC(=O)[C@@H]1CN(c2ccnc(-c3cnc4ccc(C(F)(F)F)cn34)n2)CCO1 [I-150, (S)-4-(2-(6-(trifluoromethyl)imidazo[1,2-a]pyridin-3-yl)pyrimidin-4-yl)morpholine-2-carboxamide] |
| 0.5 to 5 |  | 0.01 to 0.1 | C[C@H]1CN(c2ccnc(-c3cnc4ccc(C(F)F)cn34)n2)C[C@@H](CO)O1 [I-524, ((2S,6S)-4-(2-(6-(difluoromethyl)imidazo[1,2-a]pyridin-3-yl)pyrimidin-4-yl)-6-methylmorpholin-2-yl)methanol] |
| 0.5 to 5 |  | 0.01 to 0.1 | Cn1cc(C(=O)N2CCN(c3ccnc(-c4cnc5ccc(C(F)(F)F)cn45)n3)CC2c2cn[nH]c2)cn1 (centres unmarked) [I-418, (2-(1H-pyrazol-4-yl)-4-(2-(6-(trifluoromethyl)imidazo[1,2-a]pyridin-3-yl)pyrimidin-4-yl)piperazin-1-yl)(1-methyl-1H-pyrazol-4-yl)methanone] |
| 0.5 to 5 |  | 0.01 to 0.1 | NC(=O)C1CN(c2ccnc(-c3cnc4ccc(C(F)(F)F)cn34)n2)CCN1CCC(F)(F)F (centres unmarked) [I-245, 4-(2-(6-(trifluoromethyl)imidazo[1,2-a]pyridin-3-yl)pyrimidin-4-yl)-1-(3,3,3-trifluoropropyl)piperazine-2-carboxamide] |
| < 0.5 |  | < 0.01 | C[C@H]1CN(c2ccnc(-c3cnc4ccc(Cl)cn34)n2)C[C@H](c2cn[nH]c2F)O1 (stereo in doubt) [I-175, (2S,6S)-4-(2-(6-chloroimidazo[1,2-a]pyridin-3-yl)pyrimidin-4-yl)-2-(5-fluoro-1H-pyrazol-4-yl)-6-methylmorpholine] |
| < 0.5 | < 0.01 |  | FC(F)(F)c1ccc2ncc(-c3nc(N4CCOC(c5cn[nH]c5)C4)ns3)n2c1 (centres unmarked) [I-108, 2-(1H-pyrazol-4-yl)-4-(5-(6-(trifluoromethyl)imidazo[1,2-a]pyridin-3-yl)-1,2,4-thiadiazol-3-yl)morpholine] |
| < 0.5 |  | 0.01 to 0.1 | Cc1cc(-c2cnc3ccc(Cl)cn23)nc(N2C[C@@H](C)O[C@@H](c3c[nH]nc3C)C2)n1 [I-222, (2R,6S)-4-(4-(6-chloroimidazo[1,2-a]pyridin-3-yl)-6-methylpyrimidin-2-yl)-2-methyl-6-(5-methyl-1H-pyrazol-4-yl)morpholine] |
| < 0.5 |  | < 0.01 | FC(F)(F)c1ccc2ncc(-c3ccnc(N4CCN(C[C@@H]5CCCOC5)[C@@H](c5cn[nH]c5)C4)n3)n2c1 [I-546, 3-(2-((S)-3-(1H-pyrazol-4-yl)-4-(((S)-tetrahydro-2H-pyran-3-yl)methyl)piperazin-1-yl)pyrimidin-4-yl)-6-(trifluoromethyl)imidazo[1,2-a]pyridine] |
| > 5 |  | 0.01 to 0.1 | CC(C)(C(=O)O)C1CCCN(c2ccnc(-c3cnc4ccc(Cl)cn34)n2)C1 (centres unmarked) [I-284, 2-(1-(2-(6-chloroimidazo[1,2-a]pyridin-3-yl)pyrimidin-4-yl)piperidin-3-yl)-2-methylpropanoic acid] |
| 0.5 to 5 |  | 0.01 to 0.1 | NC(=O)[C@@H]1CN(c2ccnc(-c3cnc4cc(F)c(Cl)cn34)n2)CCN1C1CC1 [I-424, (S)-4-(2-(6-chloro-7-fluoroimidazo[1,2-a]pyridin-3-yl)pyrimidin-4-yl)-1-cyclopropylpiperazine-2-carboxamide] |
| 0.5 to 5 | < 0.01 |  | Clc1ccc2ncc(-c3nccc(N4CCNC(c5cn[nH]c5)C4)n3)n2c1 (centres unmarked) [I-28, 6-Chloro-3-[4-[3-(1H-pyrazol-4-yl)piperazin-1-yl]pyrimidin-2-yl]imidazo[1,2-a]pyridine] |
| 0.5 to 5 | 0.01 to 0.1 |  | OCC1CCN(c2ccnc(-c3cnc4cc(F)c(Cl)cn34)n2)CC1c1ccccc1 (centres unmarked) [I-83, {1-[2-(6-Chloro-7-fluoro-imidazo[1,2-a]pyridin-3-yl)-pyrimidin-4-yl]-3-phenyl-piperidin-4-yl}-methanol] |
| < 0.5 | < 0.01 |  | FC(F)(F)c1ccc2ncc(-c3nccc(N4CCOC(c5cn[nH]c5)C4)n3)n2c1 (centres unmarked) [I-45, 2-(1H-Pyrazol-4-yl)-4-(2-(6-(trifluoromethyl)imidazo[1,2-a]pyridin-3-yl)pyrimidin-4-yl)morpholine] |
| < 0.5 |  | < 0.01 | CC1[C@@H](c2cn[nH]c2)NCCN1c1ccnc(-c2cnc3ccc(C(F)(F)F)cn23)n1 (stereo partly drawn) [I-310, 3-(4-((3R)-2-methyl-3-(1H-pyrazol-4-yl)piperazin-1-yl)pyrimidin-2-yl)-6-(trifluoromethyl)imidazo[1,2-a]pyridine] |
| 0.5 to 5 |  | 0.01 to 0.1 | CC1C(CNS(C)(=O)=O)N(C2COC2)CCN1c1ccnc(-c2cnc3ccc(C(F)F)cn23)n1 (centres unmarked) [I-530, N-((4-(2-(6-(difluoromethyl)imidazo[1,2-a]pyridin-3-yl)pyrimidin-4-yl)-3-methyl-1-(oxetan-3-yl)piperazin-2-yl)methyl)methanesulfonamide] |
| < 0.5 | < 0.01 |  | CS(=O)(=O)NC[C@@H]1CN(c2nccc(-c3cnc4ccc(C(F)F)cn34)n2)CCO1 [I-17, N-[[(2S)-4-[4-[6-(Difluoromethyl)imidazo[1,2-a]pyridin-3-yl]pyrimidin-2-yl]morpholin-2-yl]methyl]methanesulfonamide] |
| < 0.5 |  | 0.01 to 0.1 | COc1cc(-c2cnc3ccc(Cl)cn23)nc(N2C[C@@H](C)C[C@@H](c3cn[nH]c3)C2)n1 [I-281, 6-chloro-3-(6-methoxy-2-((3S,5S)-3-methyl-5-(1H-pyrazol-4-yl)piperidin-1-yl)pyrimidin-4-yl)imidazo[1,2-a]pyridine] |
| < 0.5 |  | < 0.01 | FC(F)(F)c1ccc2ncc(-c3ccnc(N4CCN(C[C@@H]5CCCOC5)[C@H](c5cn[nH]c5)C4)n3)n2c1 [I-544, 3-(2-((R)-3-(1H-pyrazol-4-yl)-4-(((S)-tetrahydro-2H-pyran-3-yl)methyl)piperazin-1-yl)pyrimidin-4-yl)-6-(trifluoromethyl)imidazo[1,2-a]pyridine] |
| > 5 |  | 0.01 to 0.1 | CC1(C)CN(c2ccnc(-c3cnc4ccc(C(F)F)cn34)n2)CC2(CN(S(C)(=O)=O)C2)O1 [I-396, 8-(2-(6-(difluoromethyl)imidazo[1,2-a]pyridin-3-yl)pyrimidin-4-yl)-6,6-dimethyl-2-(methylsulfonyl)-5-oxa-2,8-diazaspiro[3.5]nonane] |
| 0.5 to 5 |  | < 0.01 | Cc1[nH]ncc1C1CN(c2ccnc(-c3cnc4ccc(Cl)cn34)n2)CC(C)N1S(C)(=O)=O (centres unmarked) [I-268, 6-chloro-3-(4-(3-methyl-5-(5-methyl-1H-pyrazol-4-yl)-4-(methylsulfonyl)piperazin-1-yl)pyrimidin-2-yl)imidazo[1,2-a]pyridine] |
